Key:
Test in all cases: Test D controlled growth environment herbicide test, pre- and postemergence
Format in all cases: in vivo
[1] = test system: deadnettle (henbit deadnettle, Lamium amplexicaule)
In short: (§1)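 Rating is visual, 0–100 scale (100 = complete control), made against untreated plants 14–21 d after treatment in controlled growth conditions. Postemergence sprays went onto 1- to 4-leaf plants in peat medium; preemergence sprays onto silt loam after sowing; formulation included a surfactant.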

[2] = test system: lambsquarters (Chenopodium album)
In short: as §1

[3] = test system: blackgrass (Alopecurus myosuroides)
In short: as §1

[4] = test system: chickweed (common chickweed, Stellaria media)
In short: as §1

[5] = test system: foxtail, green (green foxtail, Setaria viridis)
In short: as §1

kochia (Kochia scoparia) = test system: kochia (Kochia scoparia)
In short: as §1

[6] = test system: oilseed rape (Brassica napus)
In short: as §1

[7] = test system: canarygrass (Phalaris minor)
In short: as §1

[8] = test system: field poppy (Papaver rhoeas)
In short: as §1

[9] = test system: chamomile (scentless chamomile, Matricaria inodora)
In short: as §1

[10] = test system: bromegrass, downy (downy bromegrass, Bromus tectorum)
In short: as §1

[11] = test system: galium (catchweed bedstraw, Galium aparine)
In short: as §1

[12] = test system: wheat, spring (spring wheat, Triticum aestivum)
In short: as §1

[13] = test system: barley, spring (spring barley, Hordeum vulgare)
In short: as §1

[14] = Postemergence, 31 g ai/ha, scale 0 to 100 (0 no effect, 100 complete control)
[15] = Postemergence, 125 g ai/ha, visual rating on scale 0 (no effect) to 100 (complete control), 14 to 21 d
[16] = Postemergence, 250 g ai/ha, scale 0 to 100 (0 no effect, 100 complete control)
[17] = Preemergence, 125 g ai/ha, scale 0 to 100 (0 no effect, 100 complete control)
[18] = Preemergence, 250 g ai/ha, scale 0 to 100, 0 no effect, 100 complete control
[19] = postemergence, 62 g ai/ha, scale 0 to 100, 0 no effect, 100 complete control
[20] = Preemergence, 62 g ai/ha, scale 0 to 100 (0 no effect, 100 complete control)

For `Cc1nn(C)c(=O)c(-c2cccc3ccc(Br)cc23)c1O` [Compound 126], the “Deadnettle plant response rating” value [1, 14] was 40, the “Plant response rating, Deadnettle” value [1, 15] was 80 and the “Plant response rating, Deadnettle” value [1, 16] was 85. The “Plant response rating (scale of 0 to 100), Deadnettle” value ([1]; Preemergence, 31 g ai/ha) was 0, the “Plant response rating (scale of 0 to 100), Deadnettle” value ([1]; Preemergence, 62 g ai/ha) was 45 and the “Plant response rating, Deadnettle” value [1, 17] was 70. For the same compound, the “Plant response rating, Deadnettle” value [1, 18] was 80, the “Plant response rating, Deadnettle” value [1, 19] was 70 and the “Lambsquarters plant response rating” value [2, 14] was 90. For the same compound, the “Plant response rating, Lambsquarters” value [2, 15] was 100, the “Plant response rating, Lambsquarters” value [2, 16] was 100 and the “Plant response rating (scale of 0 to 100), Lambsquarters” value ([2]; Preemergence, 31 g ai/ha) was 100. For the same compound, the “Plant response rating (scale of 0 to 100), Lambsquarters” value ([2]; Preemergence, 62 g ai/ha) was 100, the “Plant response rating, Lambsquarters” value [2, 17] was 75 and the “Plant response rating, Lambsquarters” value [2, 18] was 100. The “Plant response rating, Lambsquarters” value [2, 19] was 98, the “Blackgrass plant response rating” value [3, 14] was 15 and the “Plant response rating, Blackgrass” value [3, 15] was 30. For the same compound, the “Plant response rating, Blackgrass” value [3, 16] was 45, the “Plant response rating (scale of 0 to 100), Blackgrass” value ([3]; Preemergence, 31 g ai/ha) was 25 and the “Plant response rating, Blackgrass” value [3, 20] was 45. For the same compound, the “Plant response rating, Blackgrass” value [3, 17] was 55, the “Plant response rating, Blackgrass” value [3, 18] was 65 and the “Plant response rating, Blackgrass” value [3, 19] was 20. For the same compound, the “Chickweed plant response rating” value [4, 14] was 80, the “Plant response rating, Chickweed” value [4, 15] was 100 and the “Plant response rating, Chickweed” value [4, 16] was 100. The “Plant response rating (scale of 0 to 100), Chickweed” value ([4]; Preemergence, 31 g ai/ha) was 70, the “Plant response rating (scale of 0 to 100), Chickweed” value ([4]; Preemergence, 62 g ai/ha) was 98 and the “Plant response rating, Chickweed” value [4, 17] was 100. For the same compound, the “Plant response rating, Chickweed” value [4, 18] was 100, the “Plant response rating, Chickweed” value [4, 19] was 98 and the “Foxtail, Green plant response rating” value [5, 14] was 10. For the same compound, the “Plant response rating, Foxtail, Green” value [5, 15] was 25, the “Plant response rating, Foxtail, Green” value [5, 16] was 25 and the “Plant response rating (scale of 0 to 100), Foxtail, Green” value ([5]; Preemergence, 31 g ai/ha) was 20. The “Plant response rating (scale of 0 to 100), Foxtail, Green” value ([5]; Preemergence, 62 g ai/ha) was 20, the “Plant response rating, Foxtail, Green” value [5, 17] was 25 and the “Plant response rating, Foxtail, Green” value [5, 18] was 45. For the same compound, the “Plant response rating, Foxtail, Green” value [5, 19] was 10, the “Kochia plant response rating” value (kochia (Kochia scoparia); [14]) was 75 and the “Plant response rating, Kochia” value (kochia (Kochia scoparia); [15]) was 95. The “Plant response rating, Kochia” value (kochia (Kochia scoparia); [16]) was 100, the “Plant response rating (scale of 0 to 100), Kochia” value (kochia (Kochia scoparia); Preemergence, 31 g ai/ha) was 10 and the “Plant response rating (scale of 0 to 100), Kochia” value (kochia (Kochia scoparia); Preemergence, 62 g ai/ha) was 20. For the same compound, the “Plant response rating, Kochia” value (kochia (Kochia scoparia); [17]) was 75, the “Plant response rating, Kochia” value (kochia (Kochia scoparia); [18]) was 95 and the “Plant response rating, Kochia” value (kochia (Kochia scoparia); [19]) was 80. For the same compound, the “Oilseed Rape plant response rating” value [6, 14] was 60, the “Plant response rating, Oilseed Rape” value [6, 15] was 75 and the “Plant response rating, Oilseed Rape” value [6, 16] was 85. The “Plant response rating (scale of 0 to 100), Oilseed Rape” value ([6]; Preemergence, 31 g ai/ha) was 0, the “Plant response rating (scale of 0 to 100), Oilseed Rape” value ([6]; Preemergence, 62 g ai/ha) was 0 and the “Plant response rating, Oilseed Rape” value [6, 17] was 15. The “Plant response rating, Oilseed Rape” value [6, 18] was 90, the “Plant response rating, Oilseed Rape” value [6, 19] was 65 and the “Canarygrass plant response rating” value [7, 14] was 20. For the same compound, the “Plant response rating, Canarygrass” value [7, 15] was 45, the “Plant response rating, Canarygrass” value [7, 16] was 75 and the “Plant response rating (scale of 0 to 100), Canarygrass” value ([7]; Preemergence, 31 g ai/ha) was 15. For the same compound, the “Plant response rating (scale of 0 to 100), Canarygrass” value ([7]; Preemergence, 62 g ai/ha) was 50, the “Plant response rating, Canarygrass” value [7, 17] was 80 and the “Plant response rating, Canarygrass” value [7, 18] was 90. The “Plant response rating, Canarygrass” value [7, 19] was 35, the “Field Poppy plant response rating” value [8, 14] was 25 and the “Plant response rating, Field Poppy” value [8, 15] was 75. For the same compound, the “Plant response rating, Field Poppy” value [8, 16] was 85, the “Plant response rating (scale of 0 to 100), Field Poppy” value ([8]; Preemergence, 31 g ai/ha) was 30 and the “Plant response rating (scale of 0 to 100), Field Poppy” value ([8]; Preemergence, 62 g ai/ha) was 45. The “Plant response rating, Field Poppy” value [8, 17] was 90, the “Plant response rating, Field Poppy” value [8, 18] was 95 and the “Plant response rating, Field Poppy” value [8, 19] was 55. The “Chamomile plant response rating” value [9, 14] was 70, the “Plant response rating, Chamomile” value [9, 15] was 98 and the “Plant response rating, Chamomile” value [9, 16] was 100. For the same compound, the “Plant response rating (scale of 0 to 100), Chamomile” value ([9]; Preemergence, 31 g ai/ha) was 85, the “Plant response rating (scale of 0 to 100), Chamomile” value ([9]; Preemergence, 62 g ai/ha) was 100 and the “Plant response rating, Chamomile” value [9, 17] was 100. The “Plant response rating, Chamomile” value [9, 18] was 100, the “Plant response rating, Chamomile” value [9, 19] was 95 and the “Bromegrass, Downy plant response rating” value [10, 14] was 5. The “Plant response rating, Bromegrass, Downy” value [10, 15] was 20, the “Plant response rating, Bromegrass, Downy” value [10, 16] was 25 and the “Plant response rating (scale of 0 to 100), Bromegrass, Downy” value ([10]; Preemergence, 31 g ai/ha) was 0. The “Plant response rating, Bromegrass, Downy” value [10, 20] was 0, the “Plant response rating, Bromegrass, Downy” value [10, 17] was 20 and the “Plant response rating, Bromegrass, Downy” value [10, 18] was 30. For the same compound, the “Plant response rating, Bromegrass, Downy” value [10, 19] was 10, the “Galium plant response rating” value [11, 14] was 90 and the “Plant response rating, Galium” value [11, 15] was 100. The “Plant response rating, Galium” value [11, 16] was 100, the “Plant response rating (scale of 0 to 100), Galium” value ([11]; Preemergence, 31 g ai/ha) was 50 and the “Plant response rating (scale of 0 to 100), Galium” value ([11]; Preemergence, 62 g ai/ha) was 70. For the same compound, the “Plant response rating, Galium” value [11, 17] was 85, the “Plant response rating, Galium” value [11, 18] was 98 and the “Plant response rating, Galium” value [11, 19] was 100. The “Wheat, Spring plant response rating” value [12, 14] was 0, the “Plant response rating, Wheat, Spring” value [12, 15] was 0 and the “Plant response rating, Wheat, Spring” value [12, 16] was 5. The “Plant response rating (scale of 0 to 100), Wheat, Spring” value ([12]; Preemergence, 31 g ai/ha) was 0, the “Plant response rating (scale of 0 to 100), Wheat, Spring” value ([12]; Preemergence, 62 g ai/ha) was 0 and the “Plant response rating, Wheat, Spring” value [12, 17] was 0. For the same compound, the “Plant response rating, Wheat, Spring” value [12, 18] was 0, the “Plant response rating, Wheat, Spring” value [12, 19] was 0 and the “Barley, Spring plant response rating” value [13, 14] was 0. The “Plant response rating, Barley, Spring” value [13, 15] was 10, the “Plant response rating, Barley, Spring” value [13, 16] was 10 and the “Plant response rating (scale of 0 to 100), Barley, Spring” value ([13]; Preemergence, 31 g ai/ha) was 0. The “Plant response rating, Barley, Spring” value [13, 20] was 0, the “Plant response rating, Barley, Spring” value [13, 17] was 0 and the “Plant response rating, Barley, Spring” value [13, 18] was 0. The “Plant response rating, Barley, Spring” value [13, 19] was 0.

— patent US10597388B2, “Pyridazinone herbicides” (FMC CORPORATION, priority 2014, dated 2020)
